This note sets out measurements from patent US7368430B2, “Selective inhibitors of nuclear factor-κB activation and uses thereof” (Research Development Foundation, priority 2003, dated 2008).

Data set [1] concerns KBM-5 cells. Nature of the data set: Cytotoxicity assay (MTT assay). The data set is classed as cell-based. The note with it: 100 μM peptide; for effect on TNF-induced cytotoxicity (MTT): KBM-5 cells, TNF 72 h (FIG. 7A). On the procedure:
Five thousand KBM-5 cells were seeded in triplicate in 96-well plates. Cells were pretreated with 100 μM PTD-p65-P1, and then incubated with the indicated concentrations of TNF for 72 hour. Thereafter, cell viability was analyzed by MTT assay.
Five thousand cells were seeded in triplicate in 96-well plates. Cells were pretreated with 100 μM protein transduction domain-p65-P1 and then incubated with indicated concentrations of TNF or doxorubicin or cisplatin for 72 hr. Thereafter, cell viability was analyzed by the MTT method.
The cytotoxic effects of […] were determined by the MTT uptake method as described (Manna et al., 2000a). Briefly, 5000 cells were incubated with synthetic peptides for 1 hour in triplicate in 96-well plates, and then treated with various concentration of TNF for 72 hours at 37° C. Thereafter, MTT solution was added to each well. After a 2-hr incubation at 37° C., extraction buffer (20% SDS, 50% dimethylformamide) was added, the cells were incubated overnight at 37° C., and then the OD was measured at 570 nm using a 96-well multiscanner (Dynex Technologies, MRX Revelation; Chantilly, Va.).

In data set [2] the test system is NF-κB. Nature of the data set: EMSA of NF-κB activation in KBM-5 cells preincubated with peptides. The data set is classed as cell-based. To be noted: various concentrations of peptides 1 h, 0.1 nM TNF 30 min (FIG. 3C). On the procedure:
NF-κB activation was examined by electrophoretic mobility shift assays as described (Chaturvedi et al., 1994; Takada and Aggarwal). Briefly, nuclear extracts prepared from TNF-treated cells (1×10^6/ml) were incubated with ^32P-end-labeled 45-mer double-stranded NF-κB oligonucleotide (10 ug of protein with 16 fmol of DNA) from the human immunodeficiency virus long terminal repeat, 5′-[…] CAGGGAGGCGTGG-3′ (SEQ ID NO. 1, boldface indicates NF-κB binding sites) for 30 min at 37° C., and the DNA-protein complex formed was separated from free oligonucleotide on 6.6% native polyacrylamide gels. […]
To determine the effects of peptide containing Ser 276 (PTD-p65-P1), KBM-5 cells was preincubated with the peptides for 1 h, and then treated with 0.1 nM TNF for the indicated times. Nuclear extracts were prepared, and NF-κB activation was analyzed by electrophoretic mobility shift assays (EMSA). […]
Lipopolysaccharide, IL-1, okadaic acid, PMA, H2O2, and cigarette smoke condensate are potent activators of NF-κB, but the mechanisms differ. […] Cells were preincubated with 150 μM protein transduction domain-p65-P1 for 1 h, treated with 0.1 nM TNF, 1 μg/ml LPS, 100 ng/ml IL-1, 500 nM okadaic acid, 10 ng/ml PMA, 500 μM H2O2, or 1 μg/ml cigarette smoke condensate and then analyzed for NF-κB activation by EMSA.
In general terms: In EMSA bound probe runs differently from free probe, usually more slowly.

Data set [3] addresses T1, NF-κB (p50-p65) binding to DNA (Homo sapiens, UniProt Q04206).
T1 construct: endogenous in cells; host or cells: KBM-5 cells, TNF-treated, nuclear extract
Nature of the data set: EMSA of NF-κB binding to DNA, nuclear extracts of TNF-treated cells incubated with peptides in vitro. The data set is classed as biochemical. To be noted: nuclear extracts of TNF-treated KBM-5 cells incubated 30 min with peptides (FIG. 2A). On the procedure:
Nuclear extracts were prepared from TNF-treated cells, incubated for 30 min with various concentrations of peptides, and then assayed for NF-κB activation by EMSA.
NF-κB activation was examined by electrophoretic mobility shift assays as described (Chaturvedi et al., 1994; Takada and Aggarwal). Briefly, nuclear extracts prepared from TNF-treated cells (1×10^6/ml) were incubated with ^32P-end-labeled 45-mer double-stranded NF-κB oligonucleotide (10 ug of protein with 16 fmol of DNA) from the human immunodeficiency virus long terminal repeat, 5′-[…] CAGGGAGGCGTGG-3′ (SEQ ID NO. 1, boldface indicates NF-κB binding sites) for 30 min at 37° C., and the DNA-protein complex formed was separated from free oligonucleotide on 6.6% native polyacrylamide gels. A double-stranded mutated oligonucleotide, 5′-[…]-3′(SEQ ID NO. 2) was used to examine the specificity of binding of NF-κB to the DNA. The specificity of binding was also examined by competition with unlabeled oligonucleotide.
The dose-dependent effect of protein transduction domain-p65-P1 and p65-P1 on p50-p65 binding to DNA was investigated. […] The protein transduction domain alone had no effect.

The target of data set [4] is T2, IKK complex (Homo sapiens, UniProt O14920+O15111).
T2 construct: Whole-cell extracts were prepared from TNF-treated cells and immunoprecipitated with antibody against IKK-α; endogenous in cells
Nature of the data set: Cell-free phosphorylation of p65 peptides by immunoprecipitated IKK complex. The data set is classed as biochemical. To be noted: 10 μg of peptides as substrate (FIG. 5C). On the procedure: Whole-cell extracts were prepared from TNF-treated cells and immunoprecipitated with antibody against IKK-α. Thereafter immunocomplex kinase assay was performed in the presence of the peptides as a substrate.
To determine the total amounts of IKK-α and IKK-β in each sample, […] of the whole-cell protein was resolved on 7.5% SDS-PAGE, electrotransferred to a nitrocellulose membrane, and then blotted with either anti-IKK-α or anti-IKK-β antibodies. Cell-free phosphorylation of peptide by IKK was also determined using 10 μg of peptides as a substrate in the kinase reaction mixture described above, and then fractionated on 20% SDS-PAGE in 2×SDS electrophoresis buffer.
p65-P1 and p65-p6 have one or two serine residues respectively. Whether these serine residues can be phosphorylated by IKK was investigated. Whole-cell extracts from TNF-treated cells were immunoprecipitated with antibody against IKK and then immunocomplex kinase assay was performed using p65-peptides as substrates. After reaction, samples were fractionated on 20% SDS-PAGE with 2-fold electrophoresis buffer.

Where a SMILES comes first, the peptide text is derived from it.

T1 sequence (Q04206 whole entry): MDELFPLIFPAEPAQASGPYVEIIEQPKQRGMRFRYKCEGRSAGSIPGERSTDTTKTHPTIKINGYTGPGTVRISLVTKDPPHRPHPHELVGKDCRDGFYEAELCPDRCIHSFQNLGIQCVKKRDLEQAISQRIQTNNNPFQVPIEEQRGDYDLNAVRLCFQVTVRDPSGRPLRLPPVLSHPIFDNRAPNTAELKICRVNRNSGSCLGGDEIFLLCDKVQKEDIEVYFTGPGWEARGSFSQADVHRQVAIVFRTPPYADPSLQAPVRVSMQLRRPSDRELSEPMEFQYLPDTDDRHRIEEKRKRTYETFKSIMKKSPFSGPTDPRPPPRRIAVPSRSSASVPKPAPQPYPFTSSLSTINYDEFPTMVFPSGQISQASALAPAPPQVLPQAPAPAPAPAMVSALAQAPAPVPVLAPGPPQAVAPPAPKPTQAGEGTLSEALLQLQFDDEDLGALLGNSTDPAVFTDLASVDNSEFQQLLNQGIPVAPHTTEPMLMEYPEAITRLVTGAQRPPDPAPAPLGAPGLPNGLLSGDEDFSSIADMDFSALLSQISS
T2 sequence (O15111 whole entry): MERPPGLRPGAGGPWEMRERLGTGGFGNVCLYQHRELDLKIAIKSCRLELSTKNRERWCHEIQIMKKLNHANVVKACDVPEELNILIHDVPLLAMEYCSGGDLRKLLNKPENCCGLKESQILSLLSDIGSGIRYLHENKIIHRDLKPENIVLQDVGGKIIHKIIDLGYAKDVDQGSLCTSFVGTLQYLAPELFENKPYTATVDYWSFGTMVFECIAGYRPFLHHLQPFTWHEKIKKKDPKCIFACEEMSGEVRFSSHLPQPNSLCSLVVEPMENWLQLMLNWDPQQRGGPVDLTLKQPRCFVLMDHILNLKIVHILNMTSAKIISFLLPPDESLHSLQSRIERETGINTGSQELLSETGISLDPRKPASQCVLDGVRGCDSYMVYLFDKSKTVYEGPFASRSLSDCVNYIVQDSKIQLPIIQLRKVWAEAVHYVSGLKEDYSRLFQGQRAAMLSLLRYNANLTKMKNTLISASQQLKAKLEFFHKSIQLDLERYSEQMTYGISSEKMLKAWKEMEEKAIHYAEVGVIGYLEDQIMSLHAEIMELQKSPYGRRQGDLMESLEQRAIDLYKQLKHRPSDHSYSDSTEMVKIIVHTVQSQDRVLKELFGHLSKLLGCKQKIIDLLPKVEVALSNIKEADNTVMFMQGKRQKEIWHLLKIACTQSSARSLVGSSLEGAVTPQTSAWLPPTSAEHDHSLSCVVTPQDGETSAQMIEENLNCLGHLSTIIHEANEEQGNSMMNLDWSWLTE
T2 sequence (O14920 whole entry): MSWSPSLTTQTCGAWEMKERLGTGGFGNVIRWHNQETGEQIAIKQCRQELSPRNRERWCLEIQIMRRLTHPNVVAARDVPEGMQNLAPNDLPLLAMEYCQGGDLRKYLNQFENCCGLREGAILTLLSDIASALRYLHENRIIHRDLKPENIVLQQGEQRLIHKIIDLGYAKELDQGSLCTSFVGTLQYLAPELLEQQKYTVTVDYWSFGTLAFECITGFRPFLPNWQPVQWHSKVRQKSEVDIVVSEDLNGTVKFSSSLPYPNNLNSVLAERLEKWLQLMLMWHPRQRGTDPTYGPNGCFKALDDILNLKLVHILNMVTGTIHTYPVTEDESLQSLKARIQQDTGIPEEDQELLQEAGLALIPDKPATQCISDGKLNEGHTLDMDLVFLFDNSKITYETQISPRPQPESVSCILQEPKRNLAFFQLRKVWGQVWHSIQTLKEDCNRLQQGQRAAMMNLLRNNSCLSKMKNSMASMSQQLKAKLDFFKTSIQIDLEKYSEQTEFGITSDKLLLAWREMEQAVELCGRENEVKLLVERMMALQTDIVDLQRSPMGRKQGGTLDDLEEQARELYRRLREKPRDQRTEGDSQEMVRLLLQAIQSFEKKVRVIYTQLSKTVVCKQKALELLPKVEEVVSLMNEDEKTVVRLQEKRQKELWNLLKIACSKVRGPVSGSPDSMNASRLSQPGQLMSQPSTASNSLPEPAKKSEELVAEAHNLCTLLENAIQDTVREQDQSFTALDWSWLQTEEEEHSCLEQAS
T2 sequence (Q9Y6K9 whole entry partner): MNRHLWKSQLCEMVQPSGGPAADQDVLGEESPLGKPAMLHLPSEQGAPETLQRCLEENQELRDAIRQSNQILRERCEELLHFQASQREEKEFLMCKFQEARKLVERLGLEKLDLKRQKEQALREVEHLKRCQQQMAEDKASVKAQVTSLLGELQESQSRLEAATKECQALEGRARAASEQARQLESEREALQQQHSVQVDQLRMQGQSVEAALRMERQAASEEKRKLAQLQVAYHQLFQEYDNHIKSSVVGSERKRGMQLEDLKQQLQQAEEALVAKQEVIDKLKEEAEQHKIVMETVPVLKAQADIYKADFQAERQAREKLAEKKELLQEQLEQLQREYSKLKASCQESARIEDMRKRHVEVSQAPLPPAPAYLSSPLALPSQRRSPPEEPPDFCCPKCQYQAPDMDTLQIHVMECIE

As to `CC[C@H](C)[C@H](NC(=O)[C@H](CCCCN)NC(=O)[C@@H](NC(=O)[C@H](CCC(N)=O)NC(=O)[C@H](CCCNC(=N)N)NC(=O)[C@@H](N)CC(=O)O)[C@@H](C)CC)C(=O)N[C@@H](Cc1c[nH]c2ccccc12)C(=O)N[C@@H](Cc1ccccc1)C(=O)N[C@@H](CCC(N)=O)C(=O)N[C@@H](CC(N)=O)C(=O)N[C@@H](CC(N)=O)C(=O)N[C@@H](CCCNC(=N)N)C(=O)N[C@@H](CCCNC(=N)N)C(=O)N[C@@H](CCSC)C(=O)N[C@@H](CCCCN)C(=O)N[C@@H](Cc1c[nH]c2ccccc12)C(=O)N[C@@H](CCCCN)C(=O)N[C@@H](CCCCN)C(=O)N[C@@H](CCC(N)=O)C(=O)N[C@@H](CC(C)C)C(=O)N[C@@H](CCCNC(=N)N)C(=O)N[C@@H](CCCNC(=N)N)C(=O)N1CCC[C@H]1C(=O)N[C@@H](CO)C(=O)N[C@@H](CC(=O)O)C(=O)N[C@@H](CCCNC(=N)N)C(=O)N[C@@H](CCC(=O)O)C(=O)N[C@@H](CC(C)C)C(=O)N[C@@H](CO)C(=O)N[C@@H](CCC(=O)O)C(=O)O` [PTD-p65-P1] (H-DRQIKIWFQNNRRMKWKKQLRRPSDRELSE-OH), the “effect on cisplatin-induced cytotoxicity (MTT)” value in data set [1] (cisplatin 72 hr (FIG. 7D bottom panel)) is “potentiated”. In data set [1] (doxorubicin 72 hr (FIG. 7D top panel)), the “effect on doxorubicin-induced cytotoxicity (MTT)” value is reported as “potentiated”. For the same compound, the “effect on TNF-induced cytotoxicity (MTT)” value in data set [1] is reported as “enhanced TNF-induced cytotoxicity”. As for `CC(C)C[C@H](NC(=O)[C@H](CCC(=O)O)NC(=O)[C@H](CCCNC(=N)N)NC(=O)[C@H](CC(=O)O)NC(=O)[C@H](CO)NC(=O)[C@@H]1CCCN1C(=O)[C@H](CCCNC(=N)N)NC(=O)[C@H](CCCNC(=N)N)NC(=O)[C@H](CC(C)C)NC(=O)[C@@H](N)CCC(N)=O)C(=O)N[C@@H](CO)C(=O)N[C@@H](CCC(=O)O)C(=O)O` [p65-P1, QLRRPSDRELSE] (H-QLRRPSDRELSE-OH), the “effect on TNF-induced cytotoxicity (MTT)” value in data set [1] was “had no effect”. In the case of `CC[C@H](C)[C@H](NC(=O)[C@H](CCCCN)NC(=O)[C@@H](NC(=O)[C@H](CCC(N)=O)NC(=O)[C@H](CCCNC(=N)N)NC(=O)[C@@H](N)CC(=O)O)[C@@H](C)CC)C(=O)N[C@@H](Cc1c[nH]c2ccccc12)C(=O)N[C@@H](Cc1ccccc1)C(=O)N[C@@H](CCC(N)=O)C(=O)N[C@@H](CC(N)=O)C(=O)N[C@@H](CC(N)=O)C(=O)N[C@@H](CCCNC(=N)N)C(=O)N[C@@H](CCCNC(=N)N)C(=O)N[C@@H](CCSC)C(=O)N[C@@H](CCCCN)C(=O)N[C@@H](Cc1c[nH]c2ccccc12)C(=O)N[C@@H](CCCCN)C(=O)N[C@@H](CCCCN)C(=O)O` [protein transduction domain, reference compound] (H-DRQIKIWFQNNRRMKWKK-OH), the “effect on TNF-induced cytotoxicity (MTT)” value in data set [1] is “had no effect”.

As to “PTD-p65-P6: SEQ ID NO. 10; antennapedia protein transduction domain linked to amino acid 525-537 of the p65 subunit (DRQIKIWFQNNRRMKWKKNGLLSGDEDFSS; CHAIN PTD-p65-P6, cell permeable NF-kb inhibitor)”, the “effect on TNF-induced NF-κB activation (EMSA, dose response)” value in data set [2] was “inhibited TNF-induced NF-κB activation in a dose dependent manner”.

Regarding “p65-P2: Peptide in which Ser 276 was mutated (QLRRPADRELSE; CHAIN p65-P2, mutated peptide derived from the p65 subunit of NF-kB)”, the “inhibition of NF-κB binding to the DNA in vitro” value (from here on “inhibition of NF-κB binding”) in data set [3] is listed as “did not inhibit”. As for “p65-P4: Peptide in which five amino acid residues were deleted from the C-terminus (QLRRPSD; CHAIN p65-P4, mutated peptide derived from the p65 subunit of NF-kB)”, in data set [3], the “inhibition of NF-κB binding” value was “inactive”. Same read-out and setting: the same measure for “p65-P5: Peptide in which three amino acid residues were deleted from the N-terminus (RPSDRELSE; CHAIN p65-P5, mutated peptide derived from the p65 subunit of NF-kB)”: “inactive”. As for “p65-P6: SEQ ID NO. 11; p65 peptide containing Ser 529 and 536, amino acid 525-537 of the p65 subunit (NGLLSGDEDFSS; CHAIN p65-P6, peptide derived from the p65 subunit of NF-kB)”, the “effect on TNF-induced NF-κB activation (EMSA, dose response)” value in data set [2] was “Neither a protein transduction domain nor p65-P6 alone had any effect”. Besides, in data set [4], the “phosphorylation of the peptide by IKK complex” value is given as “can phosphorylate”. With “p65-P7: Peptide in which Ser 529 was mutated (NGLLAGDEDFSS; CHAIN p65-P7, mutated peptide derived from the p65 subunit of NF-kB)”, in data set [3], the “inhibition of NF-κB binding” value is “did not inhibit”.

Regarding “p65-p8: Peptide in which Ser 536 was mutated (NGLLSGDEDFSA; CHAIN p65-P8, mutated peptide derived from the p65 subunit of NF-kB)”, the “inhibition of NF-κB binding” value in data set [3] is “did not inhibit”.
